Results from US12077555B2, “STAT degraders and uses thereof” (Kymera Therapeutics, Inc., priority 2019, dated 2024).

Target: STAT3 (Homo sapiens, UniProt P40763)
Test: STAT3 HiBiT degradation assay in transfected A549 cells
Type: cell-based
Design: expressed in transfected cells; host or cells: A549
Settings: A549, 24 h; read-out: STAT3 HiBiT A549 degradation 24 h: Average external-Abs DC50
Outline: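 Degradation read as HiBiT-tagged STAT3 luminescence (Nano-Glo lytic reagent, 10 min, room temperature) following 24 h compound treatment of transfected A549 cells at 3-fold, 10 points. Percent remaining signal computed against controls and fitted with a four-parameter logistic; DC50 reported as letter bins (A <0.01 to D >1.0 µM).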

Sequence of STAT3 (P40763 whole entry): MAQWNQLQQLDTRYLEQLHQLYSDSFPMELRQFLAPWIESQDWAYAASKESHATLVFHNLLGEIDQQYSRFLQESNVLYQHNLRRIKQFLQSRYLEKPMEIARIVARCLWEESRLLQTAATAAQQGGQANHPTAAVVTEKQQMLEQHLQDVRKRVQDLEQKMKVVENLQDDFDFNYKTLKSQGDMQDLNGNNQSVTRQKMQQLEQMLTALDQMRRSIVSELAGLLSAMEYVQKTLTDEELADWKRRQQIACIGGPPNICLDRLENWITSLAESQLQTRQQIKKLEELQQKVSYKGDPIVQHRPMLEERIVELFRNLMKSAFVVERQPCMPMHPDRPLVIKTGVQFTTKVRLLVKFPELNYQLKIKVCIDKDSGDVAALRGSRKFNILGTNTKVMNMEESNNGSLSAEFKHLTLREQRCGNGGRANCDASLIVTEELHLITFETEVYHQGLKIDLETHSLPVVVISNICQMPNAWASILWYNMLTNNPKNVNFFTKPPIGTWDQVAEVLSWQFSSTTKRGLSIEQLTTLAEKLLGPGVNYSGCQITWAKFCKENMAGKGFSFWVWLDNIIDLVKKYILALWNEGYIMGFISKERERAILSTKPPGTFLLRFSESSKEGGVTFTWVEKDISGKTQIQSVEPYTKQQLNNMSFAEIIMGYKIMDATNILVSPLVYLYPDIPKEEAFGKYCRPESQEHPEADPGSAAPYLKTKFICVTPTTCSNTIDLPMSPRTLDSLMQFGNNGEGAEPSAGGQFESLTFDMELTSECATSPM

First: Cn1c(=O)n(C2CCC(=O)NC2=O)c2ccc(CN3CCN(CC(=O)N4CC[C@H]5CC[C@@H](C(=O)N[C@@H](CCC(N)=O)C(=O)NC(c6ccccc6)c6ccccc6)N5C(=O)[C@@H](NC(=O)c5cc6cc(C(=O)P(=O)(O)O)ccc6[nH]5)C4)CC3)cc21 (stereo partly drawn) [Compound I-157, 2-[[(5S,8S,10aR)-8-[[(1S)-3-carbamoyl-1-(diphenylmethylcarbamoyl)propyl]carbamoyl]-3-[2-(4-[[1-(2,6-dioxopiperidin-3-yl)-3-methyl-2-oxo-1,3-benzodiazol-5-yl]methyl]piperazin-l-yl)acetyl]-6-oxo-octahydropyrrolo[1,2-a][1,5]diazocin-5-yl]carbamoyl]-1H-indole-5-carbonylphosphonic acid]
Second: Cn1c(=O)n(C2CCC(=O)NC2=O)c2ccc(CC3CCN(CC(=O)N4CC[C@H]5CC[C@@H](C(=O)N[C@@H](CCC(N)=O)C(=O)NC(c6ccccc6)c6ccccc6)N5C(=O)[C@@H](NC(=O)c5cc6cc(C(=O)P(=O)(O)O)ccc6[nH]5)C4)CC3)cc21 (stereo partly drawn) [Compound I-158, 2-[[(5S,8S,10aR)-8-[[(1S)-3-carbamoyl-1-(diphenylmethylcarbamoyl)propyl]carbamoyl]-3-[2-(4-[[1-(2,6-dioxopiperidin-3-yl)-3-methyl-2-oxo-1,3-benzodiazol-5-yl]methyl]piperidin-1-yl)acetyl]-6-oxo-octahydropyrrolo[1,2-a][1,5]diazocin-5-yl]carbamoyl]-1H-indole-5-carbonylphosphonic acid]
The DC50 of the first is lower: 100 to 1000 nM for the first, greater than 1000 nM for the second.

First: Cc1ncsc1-c1ccc(CNC(=O)[C@@H]2C[C@@H](O)CN2C(=O)[C@@H](NC(=O)CCCCCC#CCOC[C@H](CCC(N)=O)NC(=O)[C@@H]2Cc3cccc4c3N2C(=O)[C@@H](NC(=O)c2cc3cc(C(=O)P(=O)(O)O)ccc3[nH]2)CC4)C(C)(C)C)cc1 [Compound I-159]
Second: Cc1ncsc1-c1ccc(CNC(=O)[C@@H]2C[C@@H](O)CN2C(=O)[C@@H](NC(=O)CCCCCc2cccc(OC[C@H](CCC(N)=O)NC(=O)[C@@H]3Cc4cccc5c4N3C(=O)[C@@H](NC(=O)c3cc4cc(C(=O)P(=O)(O)O)ccc4[nH]3)CC5)c2)C(C)(C)C)cc1 [Compound I-164, 2-[[(2S,11S)-2-[[(2S)-4-carbamoyl-1-[3-(5-[[(2S)-1-[(2S,4R)-4-hydroxy-2-([[4-(4-methyl-1,3-thiazol-5-yl)phenyl]methyl]carbamoyl)pyrrolidin-1-yl]-3,3-dimethyl-1-oxobutan-2-yl]carbamoyl]pentyl)phenoxy]butan-2-yl]carbamoyl]-12-oxo-1-azatricyclo[6.4.1.0^[4,13]]trideca-4(13),5,7-trien-11-yl]carbamoyl]-1H-indole-5-carbonylphosphonic acid]
The DC50 of the first is higher: 100 to 1000 nM for the first, 10 to 100 nM for the second.

`Cc1ncsc1-c1ccc(CNC(=O)[C@@H]2C[C@@H](O)CN2C(=O)[C@@H](NC(=O)CCC2CCN(c3ccc(CO[C@H](C)[C@H](CCC(N)=O)NC(=O)[C@@H]4Cc5cccc6c5N4C(=O)[C@@H](NC(=O)c4cc5cc(C(=O)P(=O)(O)O)ccc5[nH]4)CC6)cc3)CC2)C(C)(C)C)cc1` [Compound I-160, diammonium 2-[[(2S,11S)-2-[[(3S,4R)-1-carbamoyl-4-([4-[4-(2-[[(2S)-1-[(2S,4R)-4-hydroxy-2-([[4-(4-methyl-1,3-thiazol-5-yl)phenyl]methyl]carbamoyl)pyrrolidin-1-yl]-3,3-dimethyl-1-oxobutan-2-yl]carbamoyl]ethyl)piperidin-1-yl]phenyl]methoxy)pentan-3-yl]carbamoyl]-12-oxo-1-azatricyclo[6.4.1.0^4,13]]trideca-4(13),5,7-trien-11-yl]carbamoyl]-1H-indole-5-carbonylpho sphonate] and `Cc1ncsc1-c1ccc(CNC(=O)[C@@H]2C[C@@H](O)CN2C(=O)[C@@H](NC(=O)CC2CCN(c3ccc(CO[C@H](C)[C@H](CCC(N)=O)NC(=O)[C@@H]4Cc5cccc6c5N4C(=O)[C@@H](NC(=O)c4cc5cc(C(=O)P(=O)(O)O)ccc5[nH]4)CC6)cc3)CC2)C(C)(C)C)cc1` [Compound I-162, diammonium 2-[[(2S,11S)-2-[[(3S,4R)-1-carbamoyl-4-([4-[4-([[(2S)-1-[(2S,4R)-4-hydroxy-2-([[4-(4-methyl-1,3-thiazol-5-yl)phenyl]methyl]carbamoyl)pyrrolidin-1-yl]-3,3-dimethyl-1-oxobutan-2-yl]carbamoyl]methyl)piperidin-1-yl]phenyl]methoxy)pentan-3-yl]carbamoyl]-12-oxo-1-azatricyclo[6.4.1.0^[4,13]]trideca-4(13),5,7-trien-11-yl]carbamoyl]-1H-indole-5-carbonylphosphonate] cannot be ordered by DC50: greater than 1000 nM for the first, greater than 1000 nM for the second.

`Cc1ncsc1-c1ccc(CNC(=O)[C@@H]2C[C@@H](O)CN2C(=O)[C@@H](NC(=O)C2CCN(c3ccc(CO[C@H](C)[C@H](CCC(N)=O)NC(=O)[C@@H]4Cc5cccc6c5N4C(=O)[C@@H](NC(=O)c4cc5cc(C(=O)P(=O)(O)O)ccc5[nH]4)CC6)cc3)CC2)C(C)(C)C)cc1` [Compound I-161] and `Cc1ncsc1-c1ccc(CNC(=O)[C@@H]2C[C@@H](O)CN2C(=O)[C@@H](NC(=O)CC2CC(Cc3ccc(CO[C@H](C)[C@H](CCC(N)=O)NC(=O)[C@@H]4Cc5cccc6c5N4C(=O)[C@@H](NC(=O)c4cc5cc(C(=O)P(=O)(O)O)ccc5[nH]4)CC6)cc3)C2)C(C)(C)C)cc1` (stereo partly drawn) [Compound I-163] cannot be ordered by DC50: greater than 1000 nM for the first, greater than 1000 nM for the second.

First: CC(=O)N1CC[C@H]2CC[C@@H](C(=O)N[C@@H](CCC(N)=O)[C@@H](C)OCc3ccc(CCCCC(=O)N[C@H](C(=O)N4C[C@H](O)C[C@H]4C(=O)NCc4ccc(-c5scnc5C)cc4)C(C)(C)C)cc3)N2C(=O)[C@@H](NC(=O)c2cc3cc(C(=O)P(=O)(O)O)ccc3[nH]2)C1 [Compound I-165]
Second: Cc1ncsc1-c1ccc(CNC(=O)[C@@H]2C[C@@H](O)CC2C(=O)[C@@H](NC(=O)CCc2ccc(CCCOC[C@H](CCC(N)=O)NC(=O)[C@@H]3Cc4cccc5c4N3C(=O)[C@@H](NC(=O)c3cc4cc(C(=O)P(=O)(O)O)ccc4[nH]3)CC5)cc2)C(C)(C)C)cc1 (stereo partly drawn) [Compound I-170, diammonium 2-[[(2S,11S)-2-[[(2S)-4-carbamoyl-1-[3-[4-(2-[[(2S)-1-[(2S,4R)-4-hydroxy-2-([[4-(4-methyl-1,3-thiazo1-5-yl)phenyl]methyl]carbamoyl)pyrrolidin-1-yl]-3,3-dimethyl-1-oxobutan-2-yl]carbamoyl]ethyl)phenyl]propoxy]butan-2-yl]carbamoyl]-12-oxo-1-azatricyclo[6.4.1.0^[4,13]]trideca-4(13),5,7-trien-11-yl]carbamoyl]-1H-indole-5-carbonylphosphonate]
The DC50 of the first is lower: 100 to 1000 nM for the first, greater than 1000 nM for the second.

Compared with `Cn1c(=O)n(C2CCC(=O)NC2=O)c2ccc(C[C@H]3CC[C@H](CC(=O)N4CC[C@H]5CC[C@@H](C(=O)N[C@@H](CCC(N)=O)C(=O)NC(c6ccccc6)c6ccccc6)N5C(=O)[C@@H](NC(=O)c5cc6cc(C(=O)P(=O)(O)O)ccc6[nH]5)C4)CC3)cc21` (stereo partly drawn) [Compound I-166, 2-[[(5S,8S,10aR)-8-[[(1S)-3-carbamoyl-1-(diphenylmethylcarbamoyl)propyl]carbamoyl]-6-oxo-3-[2-[(1r, 4r)-4-[[1-(2,6-dioxopiperidin-3-yl)-3-methyl-2-oxo-1,3-benzodiazol-5-yl]methyl]cyclohexyl]acetyl]-octahydropyrrolo[1,2-a][1,5]diazocin-5-yl]carbamoyl]-1H-indole-5-carbonylphosphonic acid], `Cn1c(=O)n(C2CCC(=O)NC2=O)c2ccc(C[C@H]3CC[C@H](CCC(=O)N4CC[C@H]5CC[C@@H](C(=O)N[C@@H](CCC(N)=O)C(=O)NC(c6ccccc6)c6ccccc6)N5C(=O)[C@@H](NC(=O)c5cc6cc(C(=O)P(=O)(O)O)ccc6[nH]5)C4)CC3)cc21` (stereo partly drawn) [Compound I-167] is higher in DC50: 10 to 100 nM for the first, 100 to 1000 nM for the second.

First: Cn1c(=O)n(C2CCC(=O)NC2=O)c2ccc(N3CCN(CCCC(=O)N4CC[C@H]5CC[C@@H](C(=O)N[C@@H](CCC(N)=O)C(=O)NC(c6ccccc6)c6ccccc6)N5C(=O)[C@@H](NC(=O)c5cc6cc(C(=O)P(=O)(O)O)ccc6[nH]5)C4)CC3)cc21 (stereo partly drawn) [Compound I-168, 2-[[(5S,8S,10aR)-8-[[(1S)-3-carbamoyl-1-(diphenylmethylcarbamoyl)propyl]carbamoyl]-3-(4-[4-[1-(2,6-dioxopiperidin-3-yl)-3-methyl-2-oxo-1,3-benzodiazol-5-yl]piperazin-1-yl]butanoyl)-6-oxo-octahydropyrrolo[1,2-a][1,5]diazocin-5-yl]carbamoyl]-1H-indole-5-carbonylphosphonic acid]
Second: Cn1c(=O)n(C2CCC(=O)NC2=O)c2ccc(C3CCN(CCCC(=O)N4CC[C@H]5CC[C@@H](C(=O)N[C@@H](CCC(N)=O)C(=O)NC(c6ccccc6)c6ccccc6)N5C(=O)[C@@H](NC(=O)c5cc6cc(C(=O)P(=O)(O)O)ccc6[nH]5)C4)CC3)cc21 (stereo partly drawn) [Compound I-169, 2-[[(5S,8S,10aR)-8-[[(1S)-3-carbamoyl-1-(diphenylmethylcarbamoyl)propyl]carbamoyl]-3-(4-[4-[1-(2,6-dioxopiperidin-3-yl)-3-methyl-2-oxo-1,3-benzodiazol-5-yl]piperidin-1-yl]butanoyl)-6-oxo-octahydropyrrolo[1,2-a][1,5]diazocin-5-yl]carbamoyl]-1H-indole-5-carbonylphosphonic acid]
The DC50 of the first is higher: greater than 1000 nM for the first, 100 to 1000 nM for the second.

Same assay, conditions: read-out: STAT3 HiBiT A549 degradation 24 h: Average external-Abs DC50; A549, 24 h

`Cn1c(=O)n(C2CCC(=O)NC2=O)c2ccc(CCc3ccccc3CCC(=O)N3CC[C@H]4CC[C@@H](C(=O)N[C@@H](CCC(N)=O)C(=O)NC(c5ccccc5)c5ccccc5)N4C(=O)[C@@H](NC(=O)c4cc5cc(C(=O)P(=O)(O)O)ccc5[nH]4)C3)cc21` (stereo partly drawn) [Compound I-156, diammonium 2-[[(5S,8S,10aR)-8-[[(1S)-3-carbamoyl-1-(diphenylmethylcarbamoyl)propyl]carbamoyl]-3-[3-(2-[2-[1-(2,6-dioxopiperidin-3-yl)-3-methyl-2-oxo-1,3-benzodiazol-5-yl]ethyl]phenyl)propanoyl]-6-oxo-octahydropyrrolo[1,2-a][1,5]diazocin-5-yl]carbamoyl]-1H-indole-5-carbonylphosphonate] gave a DC50 of 100 to 1000 nM.
